Drawing on US8044075B2, “IL-8 receptor antagonists” (GlaxoSmithKline, priority 2006, dated 2011), this text covers IC50 for 22 compounds.

Structures are written as SMILES.

The subject of one assay is Primary human neutrophils. Put plainly: Neutrophil chemotaxis assay (IL-8 or GRO-α as chemoattractant). As to conditions: 0.75 h, IL-8 or GRO-α at EC80, 45 minutes, span over all compounds tested, units (nM, uM) given within the value, read-out: IC50 range of the compounds tested, neutrophil chemotaxis. The format is cell-based. The protocol: The in vitro inhibitory properties of these compounds were determined in a neutrophil chemotaxis assay. Primary human neutrophils were isolated from peripheral whole blood using percoll discontinuous gradient centrifugation, dextran sedimentation and hypotonic lysis. The chemoattractants IL-8 (CXCL8) or GRO-α (CXCL1) were placed in the bottom chamber of a 96 multi-well chamber (ChemoTx System, Neuro Probe, Gaithersburg, Md.). The agonist concentration used was an EC80 concentration. The two chambers are separated by a 5 um polycarbonate membrane. When compounds of this invention were tested, they were preincubated with the cells prior to placement on the top of the filter. Chemotaxis was allowed to proceed for 45 minutes in a humidified incubator at 37° C. with 5% CO2. At the end of the incubation period, the membrane was removed and the migrated cells in the bottom chamber were transferred to a 96-well plate. These cells were measured using a luminescent cell viability assay (Celltiter-Glo, Promega, Madison, Wis.). Each sample was tested in duplicate and each compound repeated at least three times. Positive control cells were cells without compound added and represent the maximum chemotactic response. The negative control (unstimulated) was with no chemokine added to the bottom chamber. The difference between the positive control and the negative control represents the chemotactic activity of the cells.
As for `CC(C)(c1ccccc1)c1nnc(NC(=O)c2cc(S(N)(=O)=O)cc(Cl)c2Cl)s1` [Example 36, 5-(aminosulfonyl)-2,3-dichloro-N-[5-(1-methyl-1-phenylethyl)-1,3,4-thiadiazol-2-yl]benzamide], the IC50 lay within 63 to 8000 nM. Still for that read-out and setting: the result for `O=C(Nc1nnc(C2(c3cccc(F)c3)CCC2)s1)c1cc(S(=O)(=O)NCC(F)(F)F)ccc1F` [Example 72, 2-fluoro-N-{5-[1-(3-fluorophenyl)-cyclobutyl]-1,3,4-thiadiazol-2-yl}-5-([(2,2,2-trifluoroethyl)amino]-sulfonyl}benzamide] reads 63 to 8000 nM; that for `CCNS(=O)(=O)c1cc(F)c(F)c(C(=O)Nc2nnc(C(C)(C)C)s2)c1` [Example 27, N-[5-(1,1-dimethylethyl)-1,3,4-thiadiazol-2-yl]-5-[(ethylamino)sulfonyl]-2,3-difluorobcnzamidc], 63 to 8000 nM.

Consider `O=C(Nc1nnc(C2(c3cccc(F)c3)CCC2)s1)c1cc(S(=O)(=O)NCC2CC2)ccc1F` [Example 77, 5-{[(cyclopropylmethyl)amino]sulfonyl}-2-fluoro-N-{5-[1-(3-fluorophenyl)-cyclobutyl]-1,3,4-thiadiazol-2-yl}-benzamide], for which the IC50 was 63 to 8000 nM. The same measure, in the same setting: the result for `CCNS(=O)(=O)c1ccc(F)c(C(=O)Nc2nnc(C3(c4cccc(F)c4)CCC3)s2)c1` [Example 76, 5-[(ethylamino)sulfonyl]-2-fluoro-N-{5-[1-(3-fluorophenyl)-cyclobutyl]-1,3,4-thiadiazol-2-yl}-benzamide] reads 63 to 8000 nM. As to `CCNS(=O)(=O)c1ccc(F)c(C(=O)Nc2nnc(C3CCCC3)s2)c1` [Example 58, N-(5-cyclopentyl-1,3,4-thiadiazol-2-yl)-5-[(ethylamino)sulfonyl]-2-fluorobenzamide], the IC50 lay in the range of 63 to 8000 nM. Same read-out and setting: the result for `CCNS(=O)(=O)c1cc(F)c(Cl)c(C(=O)Nc2nnc(-c3ccc(F)cc3)s2)c1` [Example 22, 2-chloro-5-[(ethylamino)sulfonyl]-3-fluoro-N-[5-(4-fluorophenyl)-1,3,4-thiadiazol-2-yl]-benzamide] reads 63 to 8000 nM. On the same count and under the same terms, next, `CCNS(=O)(=O)c1ccc(F)c(C(=O)Nc2nnc(C(C)(C)c3ccccc3F)s2)c1` [Example 63, 5-[(ethylamino)sulfonyl]-2-fluoro-N-{5-[1-(2-fluorophenyl)-1-methylethyl]-1,3,4-thiadiazol-2-yl}-benzamide]: 63 to 8000 nM; `CC(C)CNS(=O)(=O)c1ccc(F)c(C(=O)Nc2nnc(-c3ccc(F)cc3)s2)c1` [Example 18, 2-fluoro-N-[5-(4-fluorophenyl)-1,3,4-thiadiazol-2-yl]-5-{[(2-methylpropyl)amino]sulfonyl}benzamide]: 63 to 8000 nM. Regarding `CCNS(=O)(=O)c1ccc(F)c(C(=O)Nc2nnc(C3(c4ccccc4)CCC3)s2)c1` [Example 92, 5-[(ethylamino)sulfonyl]-2-fluoro-N-[5-(1-phenylcyclobutyl)-1,3,4-thiadiazol-2-yl]-benzamide], the IC50 is 63 to 8000 nM.

Regarding `O=C(Nc1nnc(-c2ccc(F)cc2)s1)c1cc(S(=O)(=O)Nc2ccccc2)ccc1F` [Example 20, 2-fluoro-N-[5-(4-fluorophenyl)-1,3,4-thiadiazol-2-yl]-5-[(phenylamino)sulfonyl]benzamide], the IC50 lay within 63 to 8000 nM.

As to `CCNS(=O)(=O)c1cc(F)c(F)c(C(=O)Nc2nnc(C(C)(C)c3ccccc3)s2)c1` [Example 29, 5-[(ethylamino)sulfonyl]-2,3-difluoro-N-[5-(1-methyl-1-phenylethyl)-1,3,4-thiadiazol-2-yl]benzamide], the IC50 was 63 to 8000 nM.

With `CCNS(=O)(=O)c1ccc(F)c(C(=O)Nc2nnc(C3(C)CCCC3)s2)c1` [Example 59, 5-[(ethylamino)sulfonyl]-2-fluoro-N-[5-(1-methylcyclopentyl)-1,3,4-thiadiazol-2-yl]benzamide], the IC50 lay within 63 to 8000 nM. With `CC(C)(c1ccccc1)c1nnc(NC(=O)c2cc(S(=O)(=O)NC3CC3)ccc2F)s1` [Example 49, 5-[(cyclopropylamino)sulfonyl]2-fluoro-N-[5-(1-methyl-1-phenylethyl)-1,3,4-thiadiazol-2-yl]benzamide], the IC50 fell in the range of 63 to 8000 nM.

Regarding `NS(=O)(=O)c1ccc(F)c(C(=O)Nc2nnc(-c3ccc(F)cc3)s2)c1` [Example 44, 5-(aminosulfonyl)-2-fluoro-N-[5-(4-fluorophenyl)-1,3,4-thiadiazol-2-yl] benzamide], the IC50 lay in the range of 63 to 8000 nM.

`CCNS(=O)(=O)c1ccc(F)c(C(=O)Nc2nnc(C3(C)CCCCC3)s2)c1` [Example 57, 5-[(cthylamino)sulfonyl]-2-fluoro-N-[5-(1-methylcyclohexyl)-1,3,4-thiadiazol-2-yl] benzamide]: the IC50 lay within 63 to 8000 nM. Same read-out and setting: the result for `CCNS(=O)(=O)c1cc(F)c(F)c(C(=O)Nc2nnc(-c3ccc(F)cc3)s2)c1` [Example 6, 5-[(ethylamino)sulfonyl]-2,3-difluoro-N-[5-(4-fluorophenyl)-1,3,4-thiadiazol-2-yl]benzamide] reads 63 to 8000 nM; that for `CC(C)(C)c1nnc(NC(=O)c2cc(S(N)(=O)=O)ccc2F)s1` [Example 39, 5-(aminosulfonyl)-N-[5-(1,1-dimethylethyl)-1,3,4-thiadiazol-2-yl]-2-fluorobenzamide], 63 to 8000 nM. For the compound `CCNS(=O)(=O)c1ccc(F)c(C(=O)Nc2nnc(C(C)(C)c3ccccc3)s2)c1` [Example 1, 5-[(ethylamino)sulfonyl]-2-fluoro-N-[5-(1-methyl-1-phenylethyl)-1,3,4-thiadiazol-2-yl]benzamide], the IC50 was in the range of 63 to 8000 nM.

The next assay concerns GROα-induced expression of the integrin CD11b on neutrophils in human whole blood. Put plainly: CD11b human whole blood assay. The following applies: Neutrophil, 10 nM GROα, read-out: IC50, inhibition of GROα-induced CD11b expression. The format is cell-based. As for the experimental part:
The compounds indicated were tested for their ability to inhibit the GROα-induced expression of the integrin CD11b on neutrophils in human whole blood.
Blood was drawn (9 ml) using a butterfly line and a 10 ml syringe containing 0.2 ml of working Sodium Heparin. The blood was kept at 37° C. until placed on ice in step 5 below. Compound stock solutions were then diluted to 12 times the maximum final concentration, 120 uM. Half Log serial dilutions were then performed in vehicle. Ten microliters of the compound dilutions or vehicle were then added to the appropriate 12×75 polypropylene tubes. One hundred microliters of whole blood was added per tube and incubated for 10 minutes, in a 37° C. water bath with initial (gentle) agitation and again at 5 minutes. The GROα stock was diluted 1:166.66 in 0.1% BSA-DPBS to “12x” concentration of 120 nM and 10 ul of the GROα dilution or 0.1% BSA-DPBS was added to the appropriate tubes so that the final GROα concentration equaled 10 nM. The tubes were incubated for 10 min at 37° C. with gentle hand agitation and again at 5 minutes. Samples were then placed on ice and 250 ul of ice cold CellFix working dilution was added followed by a one minute incubation on ice. 1.5 ml Eppendorf tubes were readied during GROα incubation by adding the appropriate antibodies. Every tube received 10 ul of CD11b-FITC and 5 ul of CD 16-PE, except for the isotype control which received 10 ul of IgG2a-FITC instead of CD11b. Addition of 50 ul of the fixed blood from each tube was added to the appropriate Eppendorf tube. Samples were allowed to then incubate for 20 min at 4° C. in the dark. Addition of the blood/antibody mixtures to 500 ul of cold DPBS were added to the appropriately labeled 12×75 polystyrene tube. The resulting mixture was kept on ice. LDS stock (10 ul) was added and the mixture was incubated for 10 min at 4° C. before flow analysis. Samples were kept in a darkened environment. The LDS addition was staggered as the samples were collected on the flow cytometer so that all samples were run ˜10-20 minutes post-LDS addition. […]
With `CCNS(=O)(=O)c1ccc(F)c(C(=O)Nc2nnc(C3(c4ccccc4)CCCC3)s2)c1` [Example 52, 5-[(ethylamino)sulfonyl]-2-fluoro-N-[5-(1-phenylcyclopentyl)-1,3,4-thiadiazol-2-yl]benzamide], the IC50 was less than 5 µM. The same measure, in the same setting: the result for `CC(C)(c1ccccc1)c1nnc(NC(=O)c2cc(S(N)(=O)=O)ccc2F)s1` [Example 61, 5-(aminosulfonyl)-2-fluoro-N-[5-(1-methyl-1-phenylethyl)-1,3,4-thiadiazol-2-yl]-benzamide] reads less than 5 µM. For `CCNS(=O)(=O)c1ccc(F)c(C(=O)Nc2nnc(C(C)(C)C)s2)c1` [Example 28, N-[5-(1,1-dimcthylcthyl)-1,3,4-thiadiazol-2-yl]-5-[(ethylamino)sulfonyl]-2-fluorobenzamide], the IC50 was less than 5 µM.

What is called IC50 is the concentration that gives 50% inhibition.
